# Data: patent US9561228B2 (Celgene Avilomics Research, Inc., priority 2013, dated 2017)
# Molecular target: T1, MEK1 activated ERK1 (Homo sapiens, UniProt P27361)
# T1 construct: purchased Millipore (Billerica, Mass.) 14-439-K
# Test: Omnia continuous-read kinase assay for potency against MEK1 activated ERK1
# Assay type: biochemical
# Settings: MEK1 activated ERK1, ATP at KM; read-out: ERK1 Omnia WT ATP KM IC50
# Excerpt: Omnia Assay Protocol for Potency Assessment Against MEK1 Activated ERK1:
# The protocol below describes continuous-read kinase assays to measure potency of compounds against activated ERK1 enzyme. The mechanics of the assay platform are best described by the vendor (Invitrogen, Carlsbad, Calif.) on their website at the following URL: invitrogen.com/site/us/en/home.html.
# Briefly, a 1.25× stock of ERK1 enzyme (14-439-K) from Millipore (Billerica, Mass.), 5×ATP (AS001A) and ST17-Sox conjugated peptide substrate (KNZ1171C) were prepared in 1× kinase reaction buffer consisting of 20 mM Tris, pH 7.5, 5 mM MgCl2, 1 mM EGTA, 5 mM β-glycerophosphate, 5% glycerol (10× stock, KB002A) and 0.2 mM DTT. 10 μL of ATP/ST17-sox peptide substrate mix was combined with 0.5 μL volume of 100% DMSO and serially diluted compounds were prepared in 100% DMSO in a Corning (#3574) 384-well, white, non-binding surface microtiter plate (Corning, N.Y.). Kinase reactions were started with the addition of 40 μL of ERK1 solution and monitored every 71 seconds for 30-240 minutes at λex360/λem485 in a Synergy plate reader from BioTek (Winooski, Vt.). At the conclusion of each assay, progress curves from each well were examined for linear reaction kinetics and fit statistics (R^2, 95% confidence interval, absolute sum of squares). Initial velocity (0 minutes to ˜30+ minutes) from each reaction was determined from the slope of a plot of relative fluorescence units vs time (minutes or seconds) and then plotted against inhibitor concentration to estimate ^AppIC50 from log [Inhibitor] vs Response, Variable Slope model in GraphPad Prism from GraphPad Software (San Diego, Calif.).
# [Reagent] used in optimized protocol:
# [ERK1]=4 nM, [ATP]=50 μM, [ST17-Sox]=10 μM (ATP ^appKM 48 μM)
# The results of this assay show the degree of inhibition of ERK activity, which is a direct measurement of inhibition of ERK activity. Results from this assay are reported in Table A under the column “ERK1 Omnia WT ATP KM IC50 (nM).”
# T1 sequence (P27361 whole entry): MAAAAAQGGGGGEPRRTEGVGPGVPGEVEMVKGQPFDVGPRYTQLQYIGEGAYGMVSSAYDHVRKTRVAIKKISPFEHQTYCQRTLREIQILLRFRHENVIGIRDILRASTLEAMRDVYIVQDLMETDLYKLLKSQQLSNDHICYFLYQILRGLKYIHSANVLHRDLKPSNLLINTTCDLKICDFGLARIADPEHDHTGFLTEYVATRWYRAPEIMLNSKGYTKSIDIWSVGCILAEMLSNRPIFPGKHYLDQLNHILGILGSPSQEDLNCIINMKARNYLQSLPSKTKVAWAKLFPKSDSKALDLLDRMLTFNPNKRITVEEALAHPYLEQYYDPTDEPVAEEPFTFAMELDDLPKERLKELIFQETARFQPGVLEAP
row,Compound,IC50
1,"C=CC(=O)N(C)c1ccccc1Nc1nc(N[C@H]2CC[C@H](O)CC2)ncc1Cl [Compound I-104, N-(2-((5-chloro-2-(trans-(4-hydroxycyclohexyl)amino)pyrimidin-4-yl)amino)phenyl)-N-methylacrylamide]",501 to 999 nM
2,C=CC(=O)Nc1ccccc1Nc1nc(Nc2ccc(N(CC)C(C)=O)cc2C(F)(F)F)ncc1Cl [Compound I-320],501 to 999 nM
3,"C=CC(=O)Nc1ccccc1Nc1nc(N[C@@H]2CCC[C@H](C(=O)NOCCO)C2)ncc1C(F)(F)F (racemic) [Compound I-4, Rac-cis-3-((4-((2-acrylamidophenyl)amino)-5-(trifluoromethyl)pyrimidin-2-yl)amino)-N-(2-hydroxyethoxyl)cyclohexanecarboxamide]",101 to 500 nM
4,"C=CC(=O)Nc1ccccc1Nc1nc(Nc2ccc(N3CCNCC3)cc2OC(F)F)ncc1Cl [Compound I-142, N-(2-((5-chloro-2-((2-(difluoromethoxy)-4-(piperazin-1-yl)phenyl)amino)pyrimidin-4-yl)amino)phenyl)acrylamide]",101 to 500 nM
5,"C=CC(=O)Nc1ccccc1Nc1nc(Nc2ccc(N3CCN(C(=O)CCCC(=O)NCCCOCCOCCOCCCNC(=O)CCCC[C@@H]4SC[C@@H]5NC(=O)N[C@@H]54)CC3)cc2OC(F)F)ncc1Cl [Compound I-306, 5-(4-(4-((4-((2-acrylamidophenyl)amino)-5-chloropyrimidin-2-yl)amino)-3-(difluoromethoxy)phenyl)piperazin-1-yl)-5-oxo-N-(15-oxo-19-((3aS,4S,6aR)-2-oxohexahydro-1H-thieno[3,4-d]imidazol-4-yl)-4,7,10-trioxa-14-azanonadecyl)pentanamide]",101 to 500 nM
6,"C=CC(=O)Nc1ccccc1Nc1nc(N[C@@H]2CCC[C@H](C(=O)NOC)C2)ncc1Cl (racemic) [Compound I-203, Rac-cis-3-((4-((2-acrylamidophenyl)amino)-5-chloropyrimidin-2-yl)amino)-N-methoxycyclohexanecarboxamide]",101 to 500 nM
7,C=CC(=O)Nc1ccccc1Nc1nc(N[C@H]2CC[C@H](OC)CC2)ncc1Cl [Compound I-100],101 to 500 nM
8,"C=CC(=O)Nc1ccccc1Nc1nc(Nc2ccc(N(CCCNC(=O)OC(C)(C)C)C(C)=O)cc2C(F)(F)F)ncc1Cl [Compound I-169, tert-butyl(3-(N-(4-((4-((2-acrylamidophenyl)amino)-5-chloropyrimidin-2-yl)amino)-3-(trifluoromethyl)phenyl)acetamido)propyl)carbamate]",501 to 999 nM
9,"C=CC(=O)Nc1cc(OC)ccc1Nc1nc(Nc2ccc(N3CCC[C@H]3CO)cc2C#N)ncc1Cl [Compound I-163, (S)—N-(2-((5-chloro-2-((2-cyano-4-(2-(hydroxymethyl)pyrrolidin-1-yl)phenyl)amino)pyrimidin-4-yl)amino)-5-methoxyphenyl)acrylamide]",501 to 999 nM
10,"C=CC(=O)Nc1cc(OC)ccc1Nc1nc(Nc2ccc(N(CC)C(C)=O)cc2OC)ncc1Cl [Compound I-175, N-(2-((5-chloro-2-((4-(N-ethylacetamido)-2-methoxyphenyl)amino)pyrimidin-4-yl)amino)-5-methoxyphenyl)acrylamide]",101 to 500 nM
11,"C=CC(=O)N[C@@H]1CCCC[C@H]1Oc1nc(Nc2cc(C(=O)NOC)ccc2C)ncc1C(N)=O (racemic) [Compound I-269, Rac-trans-4-((2-acrylamidocyclohexyl)oxy)-2-((5-(methoxycarbamoyl)-2-methylphenyl)amino)pyrimidine-5-carboxamide]",> 1000 nM
12,C=CC(=O)Nc1ccccc1Nc1nc(Nc2ccc(N(CCCNC(=O)OC(C)(C)C)C(C)=O)cc2OC)ncc1Cl [Compound I-173],501 to 999 nM
13,C=CC(=O)Nc1ccccc1Nc1nc(N[C@H]2CC[C@H](O)CC2)ncc1Cl [Compound I-101],101 to 500 nM
14,"C=CC(=O)Nc1ccccc1Nc1nc(N[C@H]2CCCN(C(=O)C(C)=O)C2)ncc1C(F)(F)F [Compound I-49, (S)—N-(2-((2-((1-(2-Oxopropanoyl)piperidin-3-yl)amino)-5-(trifluoromethyl)pyrimidin-4-yl)amino)phenyl)acrylamide]",501 to 999 nM

# The next lines start with the values.
row,IC50,Compound
1,501 to 999 nM,"C=CC(=O)Nc1ccccc1Nc1nc(N[C@H]2CC[C@@H](O)CC2)ncc1C(F)(F)F [Compound I-109, N-(2-((2-(cis-(4-hydroxycyclohexyl)amino)-5-(trifluoromethyl)pyrimidin-4-yl)amino)phenyl)acrylamide]"
2,101 to 500 nM,"C=CC(=O)Nc1ccccc1Nc1nc(N[C@H]2CCCN(C(=O)[C@H](O)CO)C2)ncc1C(F)(F)F [Compound I-51, N-(2-((2-(((S)-1-((R)-2,3-Dihydroxypropanoyl)piperidin-3-yl)amino)-5-(trifluoromethyl)pyrimidin-4-yl)amino)phenyl)acrylamide]"
3,101 to 500 nM,"C=CC(=O)Nc1ccccc1Nc1nc(Nc2ccc(N3CCC[C@H]3C(N)=O)cc2C#N)ncc1Cl [Compound I-177, (S)-1-(4-((4-((2-acrylamidophenyl)amino)-5-chloropyrimidin-2-yl)amino)-3-cyanophenyl)pyrrolidine-2-carboxamide]"
4,101 to 500 nM,"C=CC(=O)Nc1ccccc1Nc1nc(N[C@H]2CC[C@H](C(N)=O)CC2)ncc1C(F)(F)F [Compound I-16, 4-((4-((2-acrylamidophenyl)amino)-5-(trifluoromethyl)pyrimidin-2-yl)amino)-trans-cyclohexanecarboxamide]"
5,501 to 999 nM,"C=CC(=O)Nc1cc(OC)ccc1Nc1nc(Nc2ccc(N3CCN(C(C)=O)CC3)cc2OC)ncc1Cl [Compound I-152, N-(2-((2-((4-(4-acetylpiperazin-1-yl)-2-methoxyphenyl)amino)-5-chloropyrimidin-4-yl)amino)-5-methoxyphenyl)acrylamide]"
6,101 to 500 nM,"C=CC(=O)Nc1ccccc1Nc1nc(N[C@@H]2CCCN(C(C)=O)C2)ncc1Cl [Compound I-128, (R)—N-(2-((2-((1-acetylpiperidin-3-yl)amino)-5-chloropyrimidin-4-yl)amino)phenyl)acrylamide]"
7,> 1000 nM,"C=CC(=O)N[C@@H]1CCCC[C@H]1Nc1nc(Nc2cc(C(=O)NOCCO)ccc2C)ncc1C(N)=O (racemic) [Compound I-257, Rac-trans-4-((2-acrylamidocyclohexyl)amino)-2-((5-((2-hydroxyethoxy)carbamoyl)-2-methylphenyl)amino)pyrimidine-5-carboxamide]"
8,> 1000 nM,"C=CC(=O)N[C@@H]1CCCC[C@H]1Oc1nc(Nc2cc(C(N)=O)ccc2C)ncc1C(N)=O (racemic) [Compound I-268, Rac-trans-4-((2-acrylamidocyclohexyl)oxy)-2-((5-carbamoyl-2-methylphenyl)amino)pyrimidine-5-carboxamide]"
9,101 to 500 nM,"C=CC(=O)Nc1ccccc1Nc1nc(N[C@H]2CC[C@H](O)CC2)ncc1C(F)(F)F [Compound I-1, Trans-N-(2-((2-((4-hydroxycyclohexyl)amino)-5-(trifluoromethyl)pyrimidin-4-yl)amino)phenyl)acrylamide]"
10,501 to 999 nM,"C=CC(=O)Nc1ccccc1Nc1nc(Nc2cc(C(=O)O)ccc2C)ncc1C(F)(F)F [Compound I-78, 3-((4-((2-Acrylamidophenyl)amino)-5-(trifluoromethyl)pyrimidin-2-yl)amino)-4-methylbenzoic acid]"
11,501 to 999 nM,"C=C(C)S(=O)(=O)Nc1ccccc1Nc1nc(Nc2cc(C(C)=O)ccc2C)ncc1C(F)(F)F [Compound I-97, N-(2-((2-((5-acetyl-2-methylphenyl)amino)-5-(trifluoromethyl)pyrimidin-4-yl)amino)phenyl)prop-1-ene-2-sulfonamide]"
